In US9371336B2, “Compounds for treating spinal muscular atrophy” (PTC Therapeutics Inc., priority 2012, dated 2016):

Key:
Smn protein = Smn protein assay (HTRF) in cultured cells (SMA patient fibroblasts GM03813); type: cell-based, human; conditions: 48 hours; for EC1.5x for Smn protein expression: SMA patient fibroblast cells (GM03813), HTRF, 7-point concentration data, concentration producing 1.5 times Smn protein vs DMSO vehicle control; for maximum fold (Fold) increase of Smn protein: SMA patient fibroblast cells, 7-point concentration curve, relative to vehicle control
Procedure, shortened: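 Smn level is expressed as fold over vehicle, from blank-corrected ΔF of the 665/620 nm HTRF ratio. Readout used anti-SMN d2 and kryptate antibodies on RIPA lysates. GM03813 SMA fibroblasts had 48 h exposure at 37° C to seven 3.16-fold compound dilutions, run in triplicate.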

[1] = tested on: SMN2 minigene mRNA (SMN2-A minigene construct); experiment: SMN2 minigene mRNA splicing RT-qPCR assay in cultured cells; type: cell-based, human; conditions: Homo sapiens, HEK293-H; HEK293H cells stably transfected with SMN2-A minigene, 24 hours, 7-point concentration data; concentration giving 1.5-fold SMN2 full length mRNA relative to vehicle-treated cells; read-out: EC1.5x for production of full length SMN2 mRNA
Procedure, shortened: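 Full-length SMN2 minigene mRNA, measured by exon 7/luciferase-specific RT-qPCR that excludes endogenous SMN1/SMN2, was normalized to GAPDH and expressed relative to vehicle-treated cells via modified ΔΔCt. Stably transfected HEK293H cells received compound (7-point, 3.16-fold series, duplicates) for 24 h at 37 °C.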

| Compound | melting point [°C] | EC1.5x for Smn protein expression (Smn protein) | maximum fold (Fold) increase of Smn protein (Smn protein) | EC (1.5-fold) [1] [µM] |
| --- | --- | --- | --- | --- |
| C[C@@H]1CN(c2ccc3cc(-c4cn5cccnc5n4)c(=O)oc3n2)C[C@H](C)N1C [Cpd 118, 3-(imidazo[1,2-a]pyrimidin-2-yl)-7-[(3R,5S)-3,4,5-trimethylpiperazin-1-yl]-2H-pyrano[2,3-b]pyridin-2-one] | 286 to 289 | ** (an EC1.5× between >1 and ≦3 μM is indicated by two stars (**)) | *** (a fold increase between >1.35 and ≦1.5 is indicated by three stars (***)) | 0.1 to 0.3 |
| C[C@@H]1CN(c2ccc3cc(-c4cn5cccc(F)c5n4)c(=O)oc3n2)C[C@H](C)N1C [Cpd 119, 3-(8-fluoroimidazo[1,2-a]pyridin-2-yl)-7-[(3R,5 S)-3,4,5-trimethylpiperazin-1-yl]-2H-pyrano[2,3-b]pyridin-2-one] | 242 to 245 | **** (an EC1.5×≦0.3 μM is indicated by four stars (****)) | **** (a fold increase between >1.5 and ≦1.65 is indicated by four stars (****)) | ≤ 0.1 |
| C[C@@H]1CN(c2ccc3cc(-c4cn5cccc(Cl)c5n4)c(=O)oc3n2)C[C@H](C)N1C [Cpd 120, 3-(8-chloroimidazo[1,2-a]pyridin-2-yl)-7-[(3R,5S)-3,4,5-trimethylpiperazin-1-yl]-2H-pyrano[2,3-b]pyridin-2-one] | 241 to 245 |  | *** (a fold increase between >1.35 and ≦1.5 is indicated by three stars (***)) | ≤ 0.1 |
| C[C@@H]1CN(c2ccc3cc(-c4cn5ccccc5n4)c(=O)oc3n2)C[C@H](C)N1C [Cpd 121, 3-(imidazo[1,2-a]pyridin-2-yl)-7-[(3R,5S)-3,4,5-trimethylpiperazin-1-yl]-2H-pyrano[2,3-b]pyridin-2-one] | 242 to 246 | * (An EC1.5× for Smn protein expression between >3 μM and ≦10 μM is indicated by one star (*)) | *** (a fold increase between >1.35 and ≦1.5 is indicated by three stars (***)) | ≤ 0.1 |
| Cc1cc(F)c2nc(-c3cc4ccc(N5C[C@H](C)NC[C@H]5C)nc4oc3=O)cn2c1 [Cpd 122, 7-[(2R,5S)-2,5-dimethylpiperazin-1-yl]-3-(8-fluoro-6-methylimidazo[1,2-a]pyridin-2-yl)-2H-pyrano[2,3-b]pyridin-2-one] | 195 to 198 | **** (an EC1.5×≦0.3 μM is indicated by four stars (****)) | **** (a fold increase between >1.5 and ≦1.65 is indicated by four stars (****)) | ≤ 0.1 |
| Cc1cn2cc(-c3cc4ccc(N5C[C@H](C)N(C)C[C@H]5C)nc4oc3=O)nc2c(C)n1 [Cpd 123, 3-(6,8-dimethylimidazo[1,2-a]pyrazin-2-yl)-7-[(2R,5S)-2,4,5-trimethylpiperazin-1-yl]-2H-pyran[2,3-b]pyridin-2-one] | 234 to 236 | *** (an EC1.5× between >0.3 μM and ≦1 μM is indicated by three stars (***)) | **** (a fold increase between >1.5 and ≦1.65 is indicated by four stars (****)) | 0.1 to 0.3 |
| CCN1CCCN(c2ccc3cc(-c4cn5cccnc5n4)c(=O)oc3n2)CC1 [Cpd 126, 7-(4-ethyl-1,4-diazepan-1-yl)-3-(imidazo[1,2-a]pyrimidin-2-yl)-2H-pyrano[2,3-b]pyridin-2-one] | 271 to 273 |  | *** (a fold increase between >1.35 and ≦1.5 is indicated by three stars (***)) | 0.1 to 0.3 |
| CCN1CCCN(c2ccc3cc(-c4cn5cc(C)nc(C)c5n4)c(=O)oc3n2)CC1 [Cpd 128, 3-(6,8-dimethylimidazo[1,2-a]pyrazin-2-yl)-7-(4-ethyl-1,4-diazepan-1-yl)-2H-pyrano[2,3-b]pyridin-2-one] | 289 to 291 | **** (an EC1.5×≦0.3 μM is indicated by four stars (****)) | ***** (a fold increase >1.65 is indicated by five stars (*****)) | ≤ 0.1 |
| CCN1[C@H](C)CN(c2ccc3cc(-c4cn5ccccc5n4)c(=O)oc3n2)C[C@@H]1C [Cpd 129, 7-[(3R,5S)-4-ethyl-3,5-dimethylpiperazin-1-yl]-3-(imidazo[1,2-a]pyridin-2-yl)-2H-pyrano[2,3-b]pyridin-2-one] | 281 to 284 | **** (an EC1.5×≦0.3 μM is indicated by four stars (****)) | ***** (a fold increase >1.65 is indicated by five stars (*****)) | ≤ 0.1 |

Now from value to compound, other results behind:

| melting point [°C] | Compound | EC1.5x for Smn protein expression (Smn protein) | maximum fold (Fold) increase of Smn protein (Smn protein) | EC (1.5-fold) [1] [µM] |
| --- | --- | --- | --- | --- |
| 258 to 262 | CN1CCN(c2ccc3cc(-c4cn5cccc(F)c5n4)c(=O)oc3n2)CC1 [Cpd 110, 3-(8-fluoroimidazo[1,2-a]pyridin-2-yl)-7-(4-methylpiperazin-1-yl)-2H-pyrano[2,3-b]pyridin-2-one] | **** (an EC1.5×≦0.3 μM is indicated by four stars (****)) | **** (a fold increase between >1.5 and ≦1.65 is indicated by four stars (****)) | ≤ 0.1 |
| 256 to 259 | CN1CCN(c2ccc3cc(-c4cn5cccc(Cl)c5n4)c(=O)oc3n2)CC1 [Cpd 111, 3-(8-chloroimidazo[1,2-a]pyridin-2-yl)-7-(4-methylpiperazin-1-yl)-2H-pyrano[2,3-b]pyridin-2-one] | **** (an EC1.5×≦0.3 μM is indicated by four stars (****)) | *** (a fold increase between >1.35 and ≦1.5 is indicated by three stars (***)) | ≤ 0.1 |
| 269 to 273 | Cc1cc(F)c2nc(-c3cc4ccc(N5CCCN(C)CC5)nc4oc3=O)cn2c1 [Cpd 113, 3-(8-fluoro-6-methylimidazo[1,2-a]pyridin-2-yl)-7-(4-methyl-1,4-diazepan-1-yl)-2H-pyrano[2,3-b]pyridin-2-one] | *** (an EC1.5× between >0.3 μM and ≦1 μM is indicated by three stars (***)) | **** (a fold increase between >1.5 and ≦1.65 is indicated by four stars (****)) | ≤ 0.1 |
| 224 to 226 | CN1CCCN(c2ccc3cc(-c4cn5ccsc5n4)c(=O)oc3n2)CC1 [Cpd 114, 3-(imidazo[2,1-b][1,3]thiazol-6-yl)-7-(4-methyl-1,4-diazepan-1-yl)-2H-pyrano[2,3-b]pyridin-2-one] | *** (an EC1.5× between >0.3 μM and ≦1 μM is indicated by three stars (***)) | **** (a fold increase between >1.5 and ≦1.65 is indicated by four stars (****)) | ≤ 0.1 |
| 241 to 243 | Cc1ccn2cc(-c3cc4ccc(N5CCCN(C)CC5)nc4oc3=O)nc2c1 [Cpd 115, 7-(4-methyl-1,4-diazepan-1-yl)-3-(7-methylimidazo[1,2-a]pyridin-2-yl)-2H-pyrano[2,3-b]pyridin-2-one] |  | *** (a fold increase between >1.35 and ≦1.5 is indicated by three stars (***)) | ≤ 0.1 |
| 233 to 236 | Cc1ccc2nc(-c3cc4ccc(N5CCCN(C)CC5)nc4oc3=O)cn2c1 [Cpd 116, 7-(4-methyl-1,4-diazepan-1-yl)-3-(6-methylimidazo[1,2-a]pyridin-2-yl)-2H-pyrano[2,3-b]pyridin-2-one] | *** (an EC1.5× between >0.3 μM and ≦1 μM is indicated by three stars (***)) | *** (a fold increase between >1.35 and ≦1.5 is indicated by three stars (***)) | ≤ 0.1 |
| 266 to 269 | CN1CCN(c2ccc3cc(-c4cn5cccnc5n4)c(=O)oc3n2)CC1 [Cpd 117, 3-(imidazo[1,2-a]pyrimidin-2-yl)-7-(4-methylpiperazin-1-yl)-2H-pyrano[2,3-b]pyridin-2-one] | *** (an EC1.5× between >0.3 μM and ≦1 μM is indicated by three stars (***)) | **** (a fold increase between >1.5 and ≦1.65 is indicated by four stars (****)) | 0.1 to 0.3 |
| 211 to 213 | Cc1ccc2nc(-c3cc4ccc(N5C[C@@H]6C[C@H]5CN6C)nc4oc3=O)cn2c1 [Cpd 125, 7-[(1S,4S)-5-methyl-2,5-diazabicyclo[2.2.1]hept-2-yl]-3-(6-methylimidazo[1,2-a]pyridin-2-yl)-2H-pyrano[2,3-b]pyridin-2-one] | **** (an EC1.5×≦0.3 μM is indicated by four stars (****)) | ***** (a fold increase >1.65 is indicated by five stars (*****)) | 0.1 to 0.3 |
| 285 to 288 | CCN1CCCN(c2ccc3cc(-c4cn5ccccc5n4)c(=O)oc3n2)CC1 [Cpd 127, 7-(4-ethyl-1,4-diazepan-1-yl)-3-(imidazo[1,2-a]pyridin-2-yl)-2H-pyrano[2,3-b]pyridin-2-one] | *** (an EC1.5× between >0.3 μM and ≦1 μM is indicated by three stars (***)) | **** (a fold increase between >1.5 and ≦1.65 is indicated by four stars (****)) | ≤ 0.1 |
